How the values were obtained:
[1] = tested on: K. aerogenes; assay: Bacterial growth curves (OD600, 24 h) for K. aerogenes; format: cell-based, Klebsiella aerogenes
From the text: The lengths of the lag phase decreased monotonously with decreasing PmB concentration, similar to E. coli.
Bacterial growth curves for K. aerogenes for different concentrations of (free) PmB (MIC, 0.5 MIC, 0.25 MIC, and 0 MIC) are shown in FIG. 13 a). […] Diauxic growth was less evident in the presence of free PmB: 0.25 MIC to MIC.

[2] = tested on: red blood cells; assay: Hemolytic assay (hemoglobin release by UV absorption); format: cell-based; conditions: PmB concentrations from 0 MIC to MIC
Method: 12% Triton X-100 was used as a total lysis control, and PBS was used as a negative control.
Hemolysis was determined from hemoglobin release measured by UV absorption. Data are shown for free PmB and Erythro-PmBs at different PmB concentrations from 0 MIC to MIC. Values in the order of 0.03% were determined to be well below the benchmark hemolysis rate of 2% identified by the American Society of Clinical Pathology and were considered to be non-hemolytic. […] Hemolytic activity of the Erythro-PmBs was less than that of free PmB, less than 0.01%, and independent of PmB concentration (within experimental error).

[3] = tested on: E. coli; assay: Bacterial growth curves (OD600, 24 h) for E. coli; format: cell-based
Method: Bacterial growth curves for E. coli for different concentrations of (free) PmB (MIC, 0.5 MIC, 0.25 MIC, and 0 MIC) are shown in FIG. 12 a). […] Absorbance at 600 nm (OD 600) was measured during a period of 24 h. […] Bacteria treated with 0.25 MIC behaved similarly. A lag phase was observed before the first exponential cycle after the addition of an intermediate concentration of 0.5 MIC, where exponential growth was delayed by ˜9 h. […] Growth curves for E. coli treated with varying concentrations of Erythro-PmBs containing MIC, 0.5 MIC, 0.25 MIC, and 0 MIC of PmB are shown in FIG. 12 b).

polymyxin B [free PmB]
lag phase ([1]; 0.25 MIC): 6 h
lag phase ([1]; 0.5 MIC): 9 h
minimum inhibitory concentration (MIC) ([1]; OD600 over 24 h): 1.5 µg/mL
hemolysis [2]: ~0.03%
delay of exponential growth (lag phase) ([3]; 0.5 MIC): ~9 h
minimum inhibitory concentration (MIC) ([3]; OD600 over 24 h): 0.63 µg/mL
growth at MIC ([3]; PmB content at MIC (0.63 μg/mL)): No growth

From US20250041235A1, “FUNCTIONALIZED BIOLOGICAL MEMBRANES WITH MODIFYING PROTEIN MOLECULES, AND METHODS OF MAKING AND USES THEREOF” (McMaster University, priority 2021, published 2025)
